# Results published in patent publication US11498923B2 (Merck Sharp & Dohme Corp., priority 2017, dated 2022).
# Biological target: T1, human A2a receptor (Homo sapiens, UniProt P29274)
# T1 construct: purchased Perkin-Elmer RBHA2AM400UA; host or cells: HEK293 cells, used as a membrane preparation
# Experiment: A2a receptor competition binding assay (Scintillation Proximity)
# Details: membranes from HEK293 cells expressing human A2a receptor; 0.5 nM tritiated ligand; Cheng-Prusoff; read-out: A2a Ki
# Method in brief: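 HEK293 membranes bearing the human receptor, pretreated with adenosine deaminase, competed against 0.5 nM tritiated pyrazolotriazolopyrimidine antagonist with compound at 3000–0.15 nM final in DPBS plus 10 mM MgCl2. SPA bead readout after 1 h at room temperature; Ki from EC50 via Cheng-Prusoff.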
# T1 sequence (P29274 whole entry): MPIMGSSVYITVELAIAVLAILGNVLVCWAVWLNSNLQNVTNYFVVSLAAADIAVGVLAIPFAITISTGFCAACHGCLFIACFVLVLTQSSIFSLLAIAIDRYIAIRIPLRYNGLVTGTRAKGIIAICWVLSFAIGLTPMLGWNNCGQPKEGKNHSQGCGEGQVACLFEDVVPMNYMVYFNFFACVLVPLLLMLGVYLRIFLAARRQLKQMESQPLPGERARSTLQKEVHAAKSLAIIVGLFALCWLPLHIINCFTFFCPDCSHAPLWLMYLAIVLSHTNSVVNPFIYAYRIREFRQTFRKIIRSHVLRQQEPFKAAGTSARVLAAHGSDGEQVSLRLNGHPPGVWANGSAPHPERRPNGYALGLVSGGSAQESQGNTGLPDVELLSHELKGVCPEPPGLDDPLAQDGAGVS
row,SMILES,Ki [nM]
1,"CCCN1CCC2(CCN(C(=O)c3cn4c(N)nc5c(F)cccc5c4n3)CC2)C1 [Ex-277, (5-amino-7-fluoroimidazo[1,2-c]quinazolin-2-yl)(2-propyl-2,8-diazaspiro[4.5]decan-8-yl)methanone]",430
2,Nc1nc2c(F)cccc2c2nc(Cc3cc(F)ccc3-c3ccnc(N4CCOCC4)c3)cn12 [Ex-83],6.9
3,"Nc1nc2c(F)cccc2c2nc(CN3CCOc4ccccc43)cn12 [Ex-117, 2-((2,3-dihydro-4H-benzo[b][1,4]oxazin-4-yl)methyl)-7-fluoroimidazo[1,2-c]quinazolin-5-amine]",4
4,"Nc1nc2c(F)cccc2c2nc(CCc3ccccn3)cn12 [Ex-101, 7-fluoro-2-(2-(pyridin-2-yl)ethyl)imidazo[1,2-c]quinazolin-5-amine]",8.5
5,"COc1ccc(-c2ccc(Cc3cn4c(N)nc5c(F)cccc5c4n3)cc2)cc1 [Ex-78, 7-fluoro-2-((4′-methoxy-[1,1′-biphenyl]-4-yl)melhyl)imidazo[1,2-c]quinazolin-5-amine]",120
6,Nc1nc2c(F)cccc2c2nc(CCN3CCN(c4ccccn4)CC3)cn12 [Ex-138],28
7,"COc1cccc2c1nc(N)n1cc(C(=O)N3CCCCC3C)nc21 (stereo not drawn) [Ex-195, (5-amino-7-methoxyimidazo[1,2-c]quinazolin-2-yl)(2-methylpiperidin-1-yl)methanone]",10
8,"Nc1nc2c(F)cccc2c2nc(Cn3cc(-c4ccc(-c5cccnc5)cc4)nn3)cn12 [Ex-98, 7-fluoro-2-((4-(4-(pyridin-3-yl)phenyl)-1H-1,2,3-triazol-1-yl)methyl)imidazo[1,2-c)quinazolin-5-amine]",6.7
9,"COc1cccc2c1nc(N)n1cc(Cc3cccc(N4CCOCC4)c3)nc21 [Ex-28, 7-methoxy-2-(3-morpholinobenzyl)imidazo[1,2-c]quinazolin-5-amine]",2.1
10,COc1cccc(OCc2cn3c(N)nc4c(F)cccc4c3n2)c1 [Ex-147],54
11,"COc1cccc2c1nc(N)n1cc(C(=O)N3CCC4(CCCC4)CC3)nc21 [Ex-202, (5-amino-7-methoxyimidazo[1,2-c]quinazolin-2-yl)(8-azaspiro[4.5]decan-8-yl)methanone]",5.2
12,"COc1cccc2c1nc(N)n1cc(CN3CCc4cccnc4C3)nc21 [Ex-120, 2-((5,8-dihydro-1,7-naphthyridin-7(6H)-yl)methyl)-7-methoxyimidazo[1,2-c]quinazolin-5-amine]",4.2
13,"Nc1nc2ccccc2c2nc(C(=O)NCc3ccc(F)cc3F)cn12 [Ex-158, 5-amino-N-(2,4-difluorobenzyl)imidazo[1,2-c]quinazoline-2-carboxamide]",33.9
14,"COc1ccc(N2CCN(CCc3cn(Cc4cn5c(N)nc6c(F)cccc6c5n4)nn3)CC2)cc1 [Ex-97, 7-fluoro-2-((4-(2-(4-(4-methoxyphenyl)piperazin-1-yl)ethyl)-1H-1,2,3-triazol-1-yl)methyl)imidazo[1,2-c]quinazolin-5-amine]",96
15,"Nc1nc2c(F)cccc2c2nc(CC3CCN(C(=O)c4ncccn4)CC3)cn12 [Ex-326, (4-((5-amino-7-fluoroimidazo[1,2-c]quinazolin-2-yl)-methyl)piperidin-1-yl)(pyrimidin-2-yl)-methanone]",47
16,"COc1cccc2c1nc(N)n1cc(Cc3cccc4c3CCN(C(=O)Cc3ccc(F)c(F)c3)C4)nc21 [Ex-59, 1-(5-((5-amino-7-methoxyimidazo[1,2-c]quinazolin-2-yl)methyl)-3,4-dihydroisoquinolin-2(1H)-yl)-2-(3,4-difluorophenyl)ethan-1-one]",2.9
17,"Nc1nc2c(Br)cccc2c2nc(CNCc3ccccc3)cn12 [Ex-140, 2-((benzylamino)methyl)-7-bromoimidazo[1,2-c]quinazolin-5-amine]",9.1
18,"CCN1CCC(Cc2cn3c(N)nc4c(F)cccc4c3n2)CC1 [Ex-307, 2-((1-ethyl-piperidin-4-yl)methyl)-7-fluoro-imidazo[1,2-c]quina-zolin-5-amine]",120
19,"Nc1nc2c(F)cccc2c2nc(CN3Cc4ccc(F)cc4C3)cn12 [Ex-124, 7-fluoro-2-((5-fluoroisoindolin-2-yl)methyl)imidazo[1,2-c]quinazolin-5-amine]",18

# Further lines, results first:
row,Ki [nM],SMILES
1,10,"COc1cccc2c1nc(N)n1cc(C(=O)N3CCCC4(CCOC4=O)C3)nc21 (stereo not drawn) [Ex-233, 7-(5-amino-7-methoxyimidazo[1,2-c]quinazoline-2-carbonyl)-2-oxa-7-azaspiro[4.5]decan-1-one]"
2,160,"Nc1nc2c(F)cccc2c2nc(CN3CCN(Cc4ccccc4)CC3)cn12 [Ex-111, 2-((4-benzylpiperazin-1-yl)methyl)-7-fluoroimidazo[1,2-c]quinazolin-5-amine]"
3,55,"CC(=O)Nc1ccc2c(c1)CCN(C(=O)c1cn3c(N)nc4c(F)cccc4c3n1)C2 [Ex-288, N-(2-(5-amino-7-fluoroimidazo[1,2-c]quinazoline-2-carbonyl)-1,2,3,4-tetrahydroisoquinolin-6-yl)acetamide]"
4,11.5,"COc1cccc2c1nc(N)n1cc(C(=O)N3CCCC(C)C3)nc21 (stereo not drawn) [Ex-170, (5-amino-7-methoxyimidazo[1,2-c]quinazolin-2-yl)(3-methylpiperidin-1-yl)methanone]"
5,170,"Nc1nc2c(F)cccc2c2nc(C(=O)N3CCC4(CCN(CCc5ccc(F)cc5)C4)C3)cn12 (stereo not drawn) [Ex-281, (5-amino-7-fluoroimidazo[1,2-c]quinazolin-2-yl)(7-(4-fluorophenethyl)-2,7-diazaspiro[4.4]nonan-2-yl)methanone]"
6,48,"Cc1ccc(CN2CCC(Cc3cn4c(N)nc5c(F)cccc5c4n3)CC2)cc1 [Ex-312, 7-fluoro-2-((1-(4-methylbenzyl)piperi-din-4-yl)methyl)-imidazo-[1,2-c]-quinazolin-5-amine]"
7,65,"COc1cccc2c1nc(N)n1cc(C(=O)N3CCOC(C(F)(F)F)C3)nc21 (stereo not drawn) [Ex-185, (5-amino-7-methoxyimidazo[1,2-c]quinazolin-2-yl)(2-(trifluoromethyl)morpholino) methanone]"
8,5.1,"N#Cc1cccc(CC(=O)N2CCc3c(Cc4cn5c(N)nc6c(F)cccc6c5n4)cccc3C2)c1 [Ex-55, 3-(2-(5-((5-amino-7-fluoroimidazo[1,2-c]quinazolin-2-yl)methyl)-3,4-dihydroisoquinolin-2(1H)-yl)-2-oxoethyl)benzonitrile]"
9,2.3,"COc1cccc2c1nc(N)n1cc(C(=O)N3CCCC4(CC4)C3)nc21 [Ex-174, (5-amino-7-methoxyimidazo[1,2-c]quinazolin-2-yl)(5-azaspiro[2.5]octan-5-yl)methanone]"
10,5.4,"Nc1nc2c(F)cccc2c2nc(C(=O)NCc3ccccc3N3CCNCC3)cn12 [Ex-261, 5-amino-7-fluoro-N-(2-(piperazin-1-yl)benzyl)imidazo[1,2-c]quinazoline-2-carboxamide]"
11,1.9,"COc1cccc2c1nc(N)n1cc(Cc3cccc(F)c3)nc21 [Ex-22, 2-(3-fluorobenzyl)-7-methoxyimidazo[1,2-c]quinazolin-5-amine]"
12,14,"Nc1nc2c(F)cccc2c2nc(Cc3cc(F)ccc3-c3cncnc3)cn12 [Ex-81, 7-fluoro-2-(5-fluoro-2-(pyrimidin-5-yl)benzyl)imidazo[1,2-c]quinazolin-5-amine]"
13,2.8,"COc1cccc2c1nc(N)n1cc(Cc3ccccc3N3CCCCC3)nc21 [Ex-36, 7-methoxy-2-(2-(piperidin-1-yl)benzyl)imidazo[1,2-c]quinazolin-5-amine]"
14,2.9,"COc1cccc2c1nc(N)n1cc(C(=O)N3CCCC3C(C)C)nc21 (stereo not drawn) [Ex-209, (5-amino-7-methoxyimidazo[1,2-c]quinazolin-2-yl)(2-isopropylpyrrolidin-1-yl)methanone]"
15,11,"COc1cccc2c1nc(N)n1cc(CN3Cc4cccnc4C3)nc21 [Ex-122, 2-((5,7-dihydro-6H-pyrrolo[3,4-b]pyridin-6-yl)methyl)-7-methoxyimidazo[1,2-c]quinazolin-5-amine]"
16,4.3,"COc1cccc2c1nc(N)n1cc(C(=O)N3CCCC4(CC4)C3)nc21 [Ex-242, (5-amino-7-methoxyimidazo[1,2-c]quinazolin-2-yl)(5-azaspiro[2.5]octan-5-yl)methanone]"
17,0.3,"COc1cccc2c1nc(N)n1cc(Cc3cccc4cccnc34)nc21 [Ex-16, 7-methoxy-2-(quinolin-8-ylmethyl)imidazo[1,2-c]quinazolin-5-amine]"
18,9.9,"Nc1nc2c(F)cccc2c2nc(Cc3cccc4c3CCN(Cc3ccccn3)C4)cn12 [Ex-58, 7-fluoro-2-((2-(pyridin-2-ylmethyl)-1,2,3,4-tetrahydroisoquinolin-5-yl)methyl)imidazo[1,2-c]quinazolin-5-amine]"
19,21,"Nc1nc2c(F)cccc2c2nc(C(=O)N3CCc4cc(CC(=O)Nc5ccccn5)ccc4C3)cn12 [Ex-283, 2-(2-(5-amino-7-fluoroimidazo[1,2-c]quinazoline-2-carbonyl)-1,2,3,4-tetrahydroisoquinolin-6-yl)-N-(pyridin-2-yl)acetamide]"
20,240,"COc1cccc2c1nc(N)n1cc(C(=O)N3CCC4(CCC(=O)O4)CC3)nc21 [Ex-227, 8-(5-amino-7-methoxyimidazo[1,2-c]quinazoline-2-carbonyl)-1-oxa-8-azaspiro[4.5]decan-2-one]"
21,6.4,"COc1cccc2c1nc(N)n1cc(C(=O)N3C[C@@H]4[C@@H]5CC[C@@H](C5)[C@@H]4C3)nc21 [Ex-236, (5-amino-7-methoxyimidazo[1,2-c]quinazolin-2-yl)((3aR,4R,7S,7aS)-octahydro-2H-4,7-methanoisoindol-2-yl)methanone]"
22,2,"Nc1nc2ccccc2c2nc(Cc3cccc4cccnc34)cn12 [Ex-15, 2-(quinolin-8-ylmethyl)imidazo[1,2-c]quinazolin-5-amine]"
23,23.9,"COc1cccc2c1nc(N)n1cc(Cc3cccnc3N3CCN(C)CC3)nc21 [Ex-51, 7-methoxy-2-((2-(4-methylpiperazin-1-yl)pyridin-3-yl)methyl)imidazo[1,2-c]quinazolin-5-amine]"
